Tests used:
[1] = Water wettability (wetness time) of tablet; format: physicochemical; settings: 1000 kg/punch; for Wetness time, tablet obtained by compressing an excipient only: 300 mg tablet, flat punch 10 mm; for Wetness time, tablet obtained by compressing a mixture of an excipient and a water-insoluble polymer: 300 mg
Procedure: A water wettability (wetness time) of a tablet was measured in accordance with a known procedure [Chem. Pharm. Bull. 44 (1), 2121-2127 (1996)] as below. Specifically, purified water (6 mL) was put in a weighing dish, and thereon were placed quarto tissue papers (205 mm×120 mm, KimWipe S-200, manufactured by NIPPON PAPER CRECIA Co., LTD). The papers were entirely moistened, and then thereon was gently placed one tablet, and a wetness time required for entirely moistening the tablet was measured.

[2] = Hardness of tablet (tablet hardness tester); format: physicochemical; settings: 1000 kg/punch; for Hardness, tablet obtained by compressing an excipient only: 300 mg tablet, flat punch 10 mm; for Hardness, tablet obtained by compressing a mixture of an excipient and a water-insoluble polymer: 300 mg
Procedure: A hardness of tablet was measured using a tablet hardness tester (manufactured by Schleuniger, type: 6D). The measurement was carried out thrice, and a hardness of tablet was obtained on an average thereof.

[3] = (*1) 97 parts excipient + 3 parts HPMC-AS HF
[4] = (*2) 90 parts excipient + 10 parts HPMC-AS HF

Compound	Wetness time, tablet obtained by compressing an excipient only [1]	Wetness time, tablet obtained by compressing a mixture of an excipient and a water-insoluble polymer [1, 3]	Hardness, tablet obtained by compressing an excipient only [2]	Hardness, tablet obtained by compressing a mixture of an excipient and a water-insoluble polymer [2, 3]	Wetness time, tablet obtained by compressing a mixture of an excipient and a water-insoluble polymer [1, 4]	Hardness, tablet obtained by compressing a mixture of an excipient and a water-insoluble polymer [2, 4]
OC[C@@H](O)[C@@H](O)[C@H](O)[C@H](O)CO [D-mannitol]	18 s	43 (*1) seconds	12 N	53 (*1) N		
OC[C@@H](O)[C@@H](O)CO [Erythritol]			<4 N		37 (*2) seconds	23 (*2) N
OC[C@H]1O[C@@](CO)(O[C@H]2O[C@H](CO)[C@@H](O)[C@H](O)[C@H]2O)[C@@H](O)[C@@H]1O [Purified sucrose]	3 s		41 N			
OC[C@@H](O)[C@@H](O)[C@H](O)[C@@H](O)CO [Sorbitol]	>300 s	>300 (*1) seconds	229 N	207 (*1) N		
OC[C@@H](O)[C@H](O)[C@@H](O)CO [Xylitol]	3 s		12 N		74 (*2) seconds	38 (*2) N

— patent publication US20110229570A1, “ORALLY RAPIDLY DISINTEGRATING TABLET AND PROCESS FOR PRODUCING SAME” (priority 2008, published 2011)
